According to PubChem BioAssay (NCI):
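GI50 = concentration required for 50% inhibition of growth. Definition used: TGI = concentration required for complete inhibition of growth.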

What was measured:
Assay in all cases: NCI-60 cell line screen, 384-well format
TK-10 renal = tested on: TK-10 renal
ACHN renal = tested on: ACHN renal
MDA-MB-468 breast = tested on: MDA-MB-468 breast
PC-3 prostate = tested on: PC-3 prostate
MDA-MB-435 melanoma = tested on: MDA-MB-435 melanoma
UACC-257 melanoma = tested on: UACC-257 melanoma
SNB-19 CNS = tested on: SNB-19 CNS
SK-MEL-28 melanoma = tested on: SK-MEL-28 melanoma
MOLT-4 leukemia = tested on: MOLT-4 leukemia
CCRF-CEM leukemia = tested on: CCRF-CEM leukemia
RXF 393 renal = tested on: RXF 393 renal
HCC-2998 colon = tested on: HCC-2998 colon
HOP-62 NSCLC = tested on: HOP-62 NSCLC
A549 NSCLC = tested on: A549 NSCLC
OVCAR-3 ovarian = tested on: OVCAR-3 ovarian
HS 578T breast = tested on: HS 578T breast
OVCAR-4 ovarian = tested on: OVCAR-4 ovarian
KM12 colon = tested on: KM12 colon
NCI-H460 NSCLC = tested on: NCI-H460 NSCLC
HOP-92 NSCLC = tested on: HOP-92 NSCLC
HL-60(TB) leukemia = tested on: HL-60(TB) leukemia
SK-MEL-5 melanoma = tested on: SK-MEL-5 melanoma
MCF7 breast = tested on: MCF7 breast
DU-145 prostate = tested on: DU-145 prostate
IGROV1 ovarian = tested on: IGROV1 ovarian
NCI-H322M lung = tested on: NCI-H322M lung
BT-549 breast = tested on: BT-549 breast
SF-539 CNS = tested on: SF-539 CNS
SN12C renal = tested on: SN12C renal
SNB-75 CNS = tested on: SNB-75 CNS
SK-MEL-2 melanoma = tested on: SK-MEL-2 melanoma
SF-295 CNS = tested on: SF-295 CNS
RPMI-8226 leukemia = tested on: RPMI-8226 leukemia
CAKI-1 renal = tested on: CAKI-1 renal
HT29 colon = tested on: HT29 colon
NCI-H23 lung = tested on: NCI-H23 lung
M14 melanoma = tested on: M14 melanoma
A498 renal = tested on: A498 renal
NCI-H226 lung = tested on: NCI-H226 lung
SK-OV-3 ovarian = tested on: SK-OV-3 ovarian
786-0 renal = tested on: 786-0 renal
HCT-116 colon = tested on: HCT-116 colon
EKVX NSCLC = tested on: EKVX NSCLC
SF-268 CNS = tested on: SF-268 CNS
HCT-15 colon = tested on: HCT-15 colon
COLO 205 colon = tested on: COLO 205 colon
LOX IMVI melanoma = tested on: LOX IMVI melanoma
UACC-62 melanoma = tested on: UACC-62 melanoma
NCI/ADR-RES ovarian = tested on: NCI/ADR-RES ovarian
NCI-H522 lung = tested on: NCI-H522 lung
SW-620 colon = tested on: SW-620 colon
MALME-3M melanoma = tested on: MALME-3M melanoma
U251 glioblastoma = tested on: U251 glioblastoma
OVCAR-8 ovarian = tested on: OVCAR-8 ovarian

For `O=C1c2ccccc2C(=O)C(Cl)C1Cl` (stereo not drawn), the GI50 (TK-10 renal) was 1.58 µM, the TGI (TK-10 renal) was 2.93 µM and the GI50 (ACHN renal) was 1.38 µM. For the same compound, the TGI (ACHN renal) was 2.68 µM, the GI50 (MDA-MB-468 breast) was 1.53 µM and the TGI (MDA-MB-468 breast) was 2.87 µM. The GI50 (PC-3 prostate) was 1.73 µM, the TGI (PC-3 prostate) was 3.59 µM and the GI50 (MDA-MB-435 melanoma) was 1.83 µM. It also gave a TGI (MDA-MB-435 melanoma) of 3.4 µM, a GI50 (UACC-257 melanoma) of 1.94 µM and a TGI (UACC-257 melanoma) of 3.36 µM. For the same compound, the GI50 (SNB-19 CNS) was 14.1 µM, the TGI (SNB-19 CNS) was 27.2 µM and the GI50 (SK-MEL-28 melanoma) was 3.24 µM. For the same compound, the TGI (SK-MEL-28 melanoma) was 9.55 µM, the GI50 (MOLT-4 leukemia) was 1.36 µM and the TGI (MOLT-4 leukemia) was 2.65 µM. It also gave a GI50 (CCRF-CEM leukemia) of 1.49 µM, a TGI (CCRF-CEM leukemia) of 2.84 µM and a GI50 (RXF 393 renal) of 1.63 µM. It also gave a TGI (RXF 393 renal) of 3 µM, a GI50 (HCC-2998 colon) of 14.1 µM and a TGI (HCC-2998 colon) of 27.2 µM. It also gave a GI50 (HOP-62 NSCLC) of 3.33 µM, a TGI (HOP-62 NSCLC) of 11.3 µM and a GI50 (A549 NSCLC) of 15.1 µM. It also gave a TGI (A549 NSCLC) of 28.7 µM, a GI50 (OVCAR-3 ovarian) of 1.6 µM and a TGI (OVCAR-3 ovarian) of 2.95 µM. The GI50 (HS 578T breast) was 12.7 µM, the TGI (HS 578T breast) was 25.3 µM and the GI50 (OVCAR-4 ovarian) was 1.21 µM. The TGI (OVCAR-4 ovarian) was 2.46 µM, the GI50 (KM12 colon) was 13.7 µM and the TGI (KM12 colon) was 26.8 µM. It also gave a GI50 (NCI-H460 NSCLC) of 14 µM, a TGI (NCI-H460 NSCLC) of 27.2 µM and a GI50 (HOP-92 NSCLC) of 1.64 µM. The TGI (HOP-92 NSCLC) was 3 µM, the GI50 (HL-60(TB) leukemia) was 0.243 µM and the TGI (HL-60(TB) leukemia) was 0.743 µM. The GI50 (SK-MEL-5 melanoma) was 2.31 µM, the TGI (SK-MEL-5 melanoma) was 9.5 µM and the GI50 (MCF7 breast) was 1.39 µM. The TGI (MCF7 breast) was 2.72 µM, the GI50 (DU-145 prostate) was 1.15 µM and the TGI (DU-145 prostate) was 2.55 µM. The GI50 (IGROV1 ovarian) was 1.33 µM, the TGI (IGROV1 ovarian) was 4.33 µM and the GI50 (NCI-H322M lung) was 16.3 µM. For the same compound, the TGI (NCI-H322M lung) was 30 µM, the GI50 (BT-549 breast) was 1.56 µM and the TGI (BT-549 breast) was 2.91 µM. It also gave a GI50 (SF-539 CNS) of 1.69 µM, a TGI (SF-539 CNS) of 3.08 µM and a GI50 (SN12C renal) of 1.81 µM. It also gave a TGI (SN12C renal) of 3.46 µM, a GI50 (SNB-75 CNS) of 7.16 µM and a TGI (SNB-75 CNS) of 20.5 µM. The GI50 (SK-MEL-2 melanoma) was 1.91 µM, the TGI (SK-MEL-2 melanoma) was 3.32 µM and the GI50 (SF-295 CNS) was 15.2 µM. It also gave a TGI (SF-295 CNS) of 28.5 µM, a GI50 (RPMI-8226 leukemia) of 1.55 µM and a TGI (RPMI-8226 leukemia) of 2.9 µM. For the same compound, the GI50 (CAKI-1 renal) was 1.66 µM, the TGI (CAKI-1 renal) was 3.03 µM and the GI50 (HT29 colon) was 2.78 µM. For the same compound, the TGI (HT29 colon) was 8.03 µM, the GI50 (NCI-H23 lung) was 1.76 µM and the TGI (NCI-H23 lung) was 3.92 µM. For the same compound, the GI50 (M14 melanoma) was 1.89 µM, the TGI (M14 melanoma) was 3.39 µM and the GI50 (A498 renal) was 17.7 µM. It also gave a TGI (A498 renal) of 31.6 µM, a GI50 (NCI-H226 lung) of 1.41 µM and a TGI (NCI-H226 lung) of 2.77 µM. The GI50 (SK-OV-3 ovarian) was 13.2 µM, the TGI (SK-OV-3 ovarian) was 26.1 µM and the GI50 (786-0 renal) was 1.87 µM. It also gave a TGI (786-0 renal) of 4.85 µM, a GI50 (HCT-116 colon) of 1.62 µM and a TGI (HCT-116 colon) of 3.01 µM. For the same compound, the GI50 (EKVX NSCLC) was 7.02 µM, the TGI (EKVX NSCLC) was 20.4 µM and the GI50 (SF-268 CNS) was 13.9 µM. For the same compound, the TGI (SF-268 CNS) was 27 µM, the GI50 (HCT-15 colon) was 1.42 µM and the TGI (HCT-15 colon) was 2.75 µM. For the same compound, the GI50 (COLO 205 colon) was 1.84 µM, the TGI (COLO 205 colon) was 3.26 µM and the GI50 (LOX IMVI melanoma) was 0.0967 µM. The TGI (LOX IMVI melanoma) was 17.4 µM, the GI50 (UACC-62 melanoma) was 1.37 µM and the TGI (UACC-62 melanoma) was 2.85 µM. For the same compound, the GI50 (NCI/ADR-RES ovarian) was 11.2 µM, the TGI (NCI/ADR-RES ovarian) was 23.3 µM and the GI50 (NCI-H522 lung) was 1.5 µM. The TGI (NCI-H522 lung) was 2.84 µM, the GI50 (SW-620 colon) was 1.63 µM and the TGI (SW-620 colon) was 3.02 µM. For the same compound, the GI50 (MALME-3M melanoma) was 1.76 µM, the TGI (MALME-3M melanoma) was 3.15 µM and the GI50 (U251 glioblastoma) was 16.2 µM. It also gave a TGI (U251 glioblastoma) of 30 µM, a GI50 (OVCAR-8 ovarian) of 1.67 µM and a TGI (OVCAR-8 ovarian) of 3.07 µM.
